Data from US4971962A, “Cephalosporin compounds” (Lucky, Ltd., priority 1988, dated 1990).
Values after ≈ are worked out from the molar mass of the structure shown. Read-outs that look alike come from different tables or passages of the source.

Tests used:
[1] = test system: Enterobacter aerogenes ATCC 29751; test: In-vitro antibacterial activity (MIC), two-fold dilution method; type: cell-based; settings: Klebsiella aerogenes, read-out: minimal inhibitory concentration (MIC)
Protocol: (§1) In-vitro antibacterial activity was determined by the two-fold dilution method as described below. 2 μl of the test microorganism which has the 10^7 CFU per ml was inoculated on the Muller-Hinton agar which has been dispersed by the test compound, and was incubated at 37° C. for 20 hours.

[2] = test system: Staphylococcus aureus ATCC 10537; test: as above; type: cell-based; settings: read-out: minimal inhibitory concentration (MIC)
Protocol: as §1

[3] = test system: Pseudomonas aeruginosa ATCC 25619; test: as above; type: cell-based; settings: read-out: minimal inhibitory concentration (MIC)
Protocol: as §1

[4] = test system: Proteus mirabilis ATCC 25933; test: as above; type: cell-based; settings: read-out: minimal inhibitory concentration (MIC)
Protocol: as §1

[5] = test system: Klebsiella pneumoniae ATCC 10031; test: as above; type: cell-based; settings: read-out: minimal inhibitory concentration (MIC)
Protocol: as §1

[6] = test system: Escherichia coli ATCC 10536; test: as above; type: cell-based; settings: read-out: minimal inhibitory concentration (MIC)
Protocol: as §1

[7] = test system: Pseudomonas aeruginosa ATCC 27853; test: as above; type: cell-based; settings: read-out: minimal inhibitory concentration (MIC)
Protocol: as §1

[8] = test system: Bacillus subtilis ATCC 6633; test: as above; type: cell-based; settings: read-out: minimal inhibitory concentration (MIC)
Protocol: as §1

[9] = test system: Salmonella typhimurium ATCC 14028; test: as above; type: cell-based; settings: Salmonella enterica, read-out: minimal inhibitory concentration (MIC)
Protocol: as §1

[10] = test system: Pseudomonas aeruginosa ATCC 10145; test: as above; type: cell-based; settings: read-out: minimal inhibitory concentration (MIC)
Protocol: as §1

[11] = test system: Serratia marcescens ATCC 27117; test: as above; type: cell-based; settings: read-out: minimal inhibitory concentration (MIC)
Protocol: as §1

[12] = dog (Beagle), i.v. 20 mg/kg, II Compartment; cited from earlier work
[13] = test system: gram-positive bacteria, especially, Staphylococcus aureus and Bacillus subtilis; test: In-vitro antibacterial activity, comparison over gram-positive bacteria; type: cell-based; settings: from Table 1
Protocol: as §1

[14] = test system: gram-negative bacteria including Pseudomonas aeruginosa; test: In-vitro antibacterial activity, comparison over gram-negative bacteria; type: cell-based; settings: from Table 1
Protocol: as §1

[15] = Pharmacokinetics of compound (Ib) in rat, intravenous, plasma by HPLC; type: in vivo, rat (Fischer); settings: for half-life: rat, 14.29 mg/kg
Protocol: The pharmacokinetics of the invented compound (Ib) was studied in rat (Fischer, 6~10 weeks). The compound (Ib) was dissolved in phosphate bupper solution(0.05M; pH=9) and intraveneouly administered in a dose of 14.29 mg/kg to four rats, and blood samples from the rats were taken at 1, 5, 10 and 30 mins and 1, 2, 3, 5 and 7 hours after administration of the compound (Ib), respectively.
The concentrations in plasma were measured by HPLC analysis of blood samples, and the results of average concentrations in plasma were listed in Table 2.

[16] = monkey (Rhesus), i.v. 20 mg/kg, II Compartment; cited from earlier work
[17] = rat (SD), i.v. 20 mg/kg, II Compartment; cited from earlier work
[18] = Staphylococcus aureus, ATCC10537, 20 h
[19] = Bacillus subtilis, ATCC6633, 20 h
[20] = Pseudomonas aeruginosa, ATCC10145, 20 h
[21] = ATCC29751, Enterobacter aerogenes ATCC 29751, Muller-Hinton agar, 37° C., 20 hours
[22] = ATCC25619, Pseudomonas aeruginosa ATCC 25619, Muller-Hinton agar, 37° C., 20 hours
[23] = ATCC25933, Proteus mirabilis ATCC 25933, Muller-Hinton agar, 37° C., 20 hours
[24] = ATCC10031, Klebsiella pneumoniae ATCC 10031, Muller-Hinton agar, 37° C., 20 hours
[25] = ATCC10536, Escherichia coli ATCC 10536, Muller-Hinton agar, 37° C., 20 hours
[26] = ATCC27853, Pseudomonas aeruginosa ATCC 27853, Muller-Hinton agar, 37° C., 20 hours
[27] = Salmonella typhimurium ATCC 14028, Muller-Hinton agar, 37° C., 20 hours
[28] = ATCC10145, Pseudomonas aeruginosa ATCC 10145, Muller-Hinton agar, 37° C., 20 hours
[29] = ATCC27117, Serratia marcescens ATCC 27117, Muller-Hinton agar, 37° C., 20 hours
[30] = ATCC6633, Bacillus subtilis ATCC 6633, Muller-Hinton agar, 37° C., 20 hours
[31] = ATCC10537, Staphylococcus aureus ATCC 10537, Muller-Hinton agar, 37° C., 20 hours

| SMILES | MIC [2, 18] | MIC [8, 19] | activity against gram-positive bacteria as compared with ceftazidime and moxalactam [13] | MIC [1, 21] | MIC [3, 22] | MIC [4, 23] | MIC [5, 24] | MIC [6, 25] | MIC [7, 26] | MIC [9, 27] | MIC [10, 28] | MIC [11, 29] | activity against gram-negative bacteria as compared with ceftazidime and moxalactam [14] | other results |
| --- | --- | --- | --- | --- | --- | --- | --- | --- | --- | --- | --- | --- | --- | --- |
| CC(C)(O/N=C(\C(=O)N[C@@H]1C(=O)N2C(C(=O)[O-])=C(C[n+]3ccccc3)CS[C@H]12)c1csc(N)n1)C(=O)O [Ceftazidime, reference compound] | 4 mg/L (≈ 7.32 µM) | 16 mg/L (≈ 29.3 µM) | – | – | – | – | – | – | – | – | – | – | – | MIC ([1]; ATCC29751, 20 h): 4 mg/L (≈ 7.32 µM); MIC ([3]; Pseudomonas aeruginosa, ATCC25619, 20 h): 1 mg/L (≈ 1.83 µM); MIC ([4]; Proteus mirabilis, ATCC25933, 20 h): 0.0625 mg/L (≈ 0.114 µM); MIC ([5]; Klebsiella pneumoniae, ATCC10031, 20 h): 0.125 mg/L (≈ 0.229 µM); MIC ([6]; Escherichia coli, ATCC10536, 20 h): 0.125 mg/L (≈ 0.229 µM); MIC ([7]; Pseudomonas aeruginosa, ATCC27853, 20 h): 2 mg/L (≈ 3.66 µM); MIC ([9]; 20 h): 0.25 mg/L (≈ 0.457 µM); MIC [10, 20]: 2 mg/L (≈ 3.66 µM); MIC ([11]; Serratia marcescens, ATCC27117, 20 h): 0.0625 mg/L (≈ 0.114 µM); AUC [12]: 93.0 µg·h/mL |
| CC(=O)OCC1=C(C(=O)O)N2C(=O)C(NC(=O)/C(=N\OCc3ccco3)c3csc(N)n3)C2SC1 (centres unmarked) [(Ia), 7-[(Z)-2-(2-Aminothiazol-4-yl)-2-(2-furfuryl-oxyimino)acetamido]-3-acetoxymethyl-3-cephem-4-carboxylic acid] | 1 mg/L (≈ 1.92 µM) | 0.5 mg/L (≈ 0.959 µM) | superior antimicrobiral activities | 16 mg/L (≈ 30.7 µM) | 1 mg/L (≈ 1.92 µM) | 0.125 mg/L (≈ 0.24 µM) | < 0.0312 mg/L | 0.5 mg/L (≈ 0.959 µM) | 16 mg/L (≈ 30.7 µM) | 2 mg/L (≈ 3.83 µM) | 16 mg/L (≈ 30.7 µM) | 1 mg/L (≈ 1.92 µM) | almost equally active | – |
| Nc1nc(/C(=N/OCc2ccco2)C(=O)NC2C(=O)N3C(C(=O)[O-])=C(C[n+]4ccccc4)CSC23)cs1 (centres unmarked) [Compound (Ib), 7-[(Z)-2-(2-Aminothiazol-4-yl)-2-(2-furfuryl-oxyimino)acetamido]-3-(1-pyridiniummethyl)-3-cephem-4-carboxylate] | 0.25 mg/L (≈ 0.462 µM) | – | superior antimicrobiral activities | 4 mg/L (≈ 7.4 µM) | 1 mg/L (≈ 1.85 µM) | 0.5 mg/L (≈ 0.925 µM) | 0.0625 mg/L (≈ 0.116 µM) | 0.5 mg/L (≈ 0.925 µM) | 8 mg/L (≈ 14.8 µM) | 2 mg/L (≈ 3.7 µM) | 8 mg/L (≈ 14.8 µM) | 0.5 mg/L (≈ 0.925 µM) | almost equally active | MIC [8, 30]: 0.25 mg/L (≈ 0.462 µM); AUC ratio to cefotaxime ([15]; Ib in rat vs cefotaxime in rat): 6.5 times; T1/2 (β) ratio to cefotaxime in rat ([15]; Ib in rat vs cefotaxime in rat): 6.4 times; T1/2 (β) ratio to ceftazidime or ceftriaxone in dog ([15]; Ib in rat vs ceftazidime or ceftriaxone in dog): 1.9 times; AUC ([15]; plasma, iv, rat (Fischer), i.v. 14.29 mg/kg, II Compartment): 62.4 µg·h/mL; concentration at 1 min ([15]; plasma, iv, rat (Fischer), i.v. 14.29 mg/kg, average of four rats, 1 min): 112 µg/mL; concentration at 5 min ([15]; plasma, iv, rat (Fischer), i.v. 14.29 mg/kg, average of four rats, 5 min): 60.6 µg/mL; concentration at 10 min ([15]; plasma, iv, rat (Fischer), i.v. 14.29 mg/kg, average of four rats, 10 min): 43 µg/mL; concentration at 0.5 h ([15]; plasma, iv, rat (Fischer), i.v. 14.29 mg/kg, average of four rats, 30 min): 20.7 µg/mL; concentration at 1 h ([15]; plasma, iv, rat (Fischer), i.v. 14.29 mg/kg, average of four rats, 1 hr): 12.6 µg/mL; concentration at 2 h ([15]; plasma, iv, rat (Fischer), i.v. 14.29 mg/kg, average of four rats, 2 hr): 6.1 µg/mL; concentration at 3 h ([15]; plasma, iv, rat (Fischer), i.v. 14.29 mg/kg, average of four rats, 3 hr): 4.3 µg/mL; concentration at 5 h ([15]; plasma, iv, rat (Fischer), i.v. 14.29 mg/kg, average of four rats, 5 hr): 1.6 µg/mL; concentration at 7 h ([15]; plasma, iv, rat (Fischer), i.v. 14.29 mg/kg, average of four rats, 7 hr): 0.9 µg/mL; half-life ([15]; plasma, iv, rat (Fischer), i.v. 14.29 mg/kg, II Compartment, read-out: T1/2 (α)): 6.21 min; half-life ([15]; plasma, iv, rat (Fischer), i.v. 14.29 mg/kg, II Compartment, read-out: T1/2 (β)): 95 min |
| CO/N=C(\C(=O)N[C@@H]1C(=O)N2C(C(=O)O)=C(CSc3nc(=O)c(=O)[nH]n3C)CS[C@H]12)c1csc(N)n1 [Ceftriaxone] | – | – | – | – | – | – | – | – | – | – | – | – | – | AUC [16]: 838 µg·h/mL; T1/2 (α) [16]: 23.16 min; T1/2 (β) [16]: 204 min; AUC [12]: 84.3 µg·h/mL; T1/2 (α) [12]: 6.80 min; T1/2 (β) [12]: 50.7 min |
| CO[C@@]1(NC(=O)C(C(=O)O)c2ccc(O)cc2)C(=O)N2C(C(=O)O)=C(CSc3nnnn3C)CO[C@@H]21 (some centres unmarked) [Moxalactam, reference compound] | – | 8 mg/L (≈ 15.4 µM) | – | 1 mg/L (≈ 1.92 µM) | 8 mg/L (≈ 15.4 µM) | 0.25 mg/L (≈ 0.48 µM) | 0.25 mg/L (≈ 0.48 µM) | 0.125 mg/L (≈ 0.24 µM) | 16 mg/L (≈ 30.7 µM) | 0.25 mg/L (≈ 0.48 µM) | – | 0.125 mg/L (≈ 0.24 µM) | – | MIC [2, 31]: 4 mg/L (≈ 7.69 µM); MIC [10, 20]: 32 mg/L (≈ 61.5 µM) |
| CO/N=C(\C(=O)N[C@@H]1C(=O)N2C(C(=O)O)=C(COC(C)=O)CS[C@H]12)c1csc(N)n1 [Cefotaxime] | – | – | – | – | – | – | – | – | – | – | – | – | – | AUC [17]: 13.5 µg·h/mL; T1/2 (α) [17]: 4.55 min; T1/2 (β) [17]: 14.8 min |
| Cn1nnnc1SCC1=C(C(=O)O)N2C(=O)C(NC(=O)/C(=N\OCc3ccco3)c3csc(N)n3)C2SC1 (centres unmarked) [(Ic), Sodium 7-[(Z)-2-(2-aminothiazol-4-yl)-2-(2-furfuryloxyimino)-acetamido]-3-[(1-methyl-1H-tetrazol-5-yl)thiomethyl]-3-cephem-4-carboxylate] | – | – | superior antimicrobiral activities | 8 mg/L | 1 mg/L | 0.25 mg/L | < 0.0315 mg/L | 0.5 mg/L | 16 mg/L | 2 mg/L | 16 mg/L | 1 mg/L | almost equally active | MIC [2, 31]: 1 mg/L; MIC [8, 30]: 0.5 mg/L |
